# “Also recorded” adds a separate entry of the source.
# How the values were obtained:
# [1] = test system: C57BL/6NTac mice, 20 Gy thoracic irradiation; experiment: Radiation pulmonary fibrosis after 20 Gy thoracic irradiation; assay type: in vivo, mouse; settings: MMS350 in drinking water
# From the text: For lung irradiation, mice were irradiated to the thoracic cavity with shielding of the head and neck region and abdomen and lower body according to published methods. Animals received 20 Gy single fraction thoracic irradiation and were then maintained according to IACUC directed laboratory conditions. Mice were sacrificed at serial time points after thoracic irradiation including pre-irradiation, days 2, 7, 14, 28, 50, 75, 100, 110, 150 and 200 post-irradiation. Lungs were removed and sagittal sections assayed for percent of lung replaced by fibroblasts and organizing alveolitis according to published methods. Representative lung lobes from the same animals were tested by RT-PCR for level of detectable message for inflammatory cytokines, redox sensitive promoters, and levels of MnSOD.
# Lungs from irradiated and luc+ cell line injected mice were removed and serial sectioned. Sections were stained for luc+, GFP+ cells, BrdU incorporation, and for quantitation of percent lung replaced by fibrosis (organizing alveolitis) according to published methods.
# Mice were injected intra-peritoneally with MMS350 or JP4-039 (GS-nitroxide) in 50% cremphor/50% ethanol according to published methods. For long-term administration of MMS350, the drug was administered in water bottles with bottles changed every 7 days. The dose of drug per bottle was 100 μM MMS350 starting on day 88. The estimated total amount consumed by each animal daily was 10.9 μg based on a mouse drinking 5 ml of water per day. Chimeric mice irradiated to the thoracic cavity were placed 30 days later on MMS350 in water containing 100 mM MMS350. On day 88 after thoracic irradiation of non-chimeric mice, mice were placed on […] MMS350 in drinking water.
# [2] = test system: 320 cl 3 murine hematopoietic cells; experiment: Apoptotic markers after 5 Gy irradiation in vitro; assay type: cell-based; settings: 24 hours after irradiation
# From the text: Caspase-3 cleavage and Parpl cleavage illustrated the effects on apoptosis. […] Materials and Methods: Overall Design of Studies (Table 7).
# 32D cl 3 cells [3] = experiment: Irradiated 32D cl 3 cells, cell count and viability; assay type: cell-based, murine; settings: 10 μM, 0-7 Gy, day 3 or 5 after irradiation
# Protocol: FIGS. 10A-10D provide data from a screening experiment where 32D cl 3 cells were irradiated to doses of 0, 1, 3, 5, or 7 Gy and placed in T25 flasks. Either JP4-039 or MM350 were added at 10 μM and incubated in a CO2 incubator at 37° C. At Day 3 or 5 after irradiation, the cells were counted and the viability determined.
# [4] = test system: C57BL/6NTac female mice, tibia holes; experiment: Bone wound healing in drilled mouse tibias (high resolution CT); assay type: in vivo; settings: day 21
# Protocol: Eighteen C57BL/6NTac female mice were divided into 2 groups of 9 mice. The first group was placed on water containing 400 μM MMS350. One week later the MMS350 mice were injected IP with 20 mg/kg MMS350 in water 15 minutes before irradiation. The control mice and the MMS350 treated mice were anesthetized with Nembutal and the right hind leg was irradiated to 20 Gy with the remainder of the mouse shielded from the irradiation. Twenty-four hours later holes were drilled into the tibias of all the mice. The MMS350 treated mice were kept on the MMS350 with the water changed weekly. Twenty-one days later the mice were sacrificed and both tibias removed, and fixed. The tibias were imaged using a high resolution CT. The holes in the tibias were measured and the volume of the holes determined.
# Brine shrimp = Brine shrimp toxicity assay; assay type: in vivo
# Protocol: General procedure for brine shrimp toxicity assays. Sample preparation. Stock solutions of 3 were prepared by dissolving 3 (50.0 mg) in 5.0 HPLC grade water (5.0 mL), (solution A) and 3 (2.50 g) in HPLC grade water (10.0 mL) (solution B). Stock solutions of DMSO were prepared by diluting DMSO (45 μL) with HPLC grade water (5.0 mL) (solution C) and DMSO (2.27 mL) with HPLC grade water (10.0 mL) (solution D).
# In each case, 5 replicates were performed. Each replicate was performed in a 2 dram vial marked at the 4 and 5 mL volume points. To each vial was added artificial sea water (3 mL) followed by the appropriate volume of stock solution. For set 1 (1.0 mg/mL), solution A (0.500 mL) or solution C (0.500 mL) was added. For set 2 (5.0 mg/mL), solution B (0.100 mL) or solution D (0.100 mL) was added to each vial. For set 3 (20.0 mg/mL), solution B (0.400 mL) or solution D (0.400 mL) was added to each vial. For set 4 (50.0 mg/mL), solution B (1.00 mL) or solution D (1.00 mL) was added to each vial. Controls containing HPLC grade water (0.100 mL, 0.400 mL, and 1.00 mL) were prepared in the same manner, and five replicates of each control were prepared.
# Brine shrimp eggs (San Francisco Bay Brand) were hatched in a commercial salt mixture (Instant Ocean). Constant aeration was provided using a pump and airstone, and illumination was maintained using a desk lamp. The shrimp were collected in a separate tank after 48 hours and used within 3-4 hours of collection.
# Brine shrimp were added to each vial using a plastic transfer pipet. After the shrimp were transferred, artificial sea-water was added until the volume reached the 5-mL mark. One drop of a yeast suspension prepared by suspending 11 mg yeast in sea-water (20 mL) was added to each vial. The shrimp were counted at t=24 hours. Another drop of freshly prepared yeast solution (6 mg in 10 mL sea water) was added, the vials were maintained under illumination, and shrimp were counted at t=48 hours.
# 32D cl 3 cells [5] = experiment: 32D cl 3 colony formation in semisolid medium after irradiation; assay type: cell-based, murine; settings: delivered before or after irradiation
smiles,measurement,setting,value
"CC1(C[S+]([O-])CC2(C)COC2)COC1 [Compound 3, 3,3′-Sulfinylbis(methylene)bis(3-methyloxetane)]",survival,[1]; 20 Gy thoracic irradiated mice,significantly increased survival
same,pulmonary fibrosis,[1]; 20 Gy thoracic irradiation,decreased radiation pulmonary fibrosis; also recorded: significant decrease in pulmonary fibrosis
same,Percent Pulmonary Fibrosis,"[1]; thoracic-irradiated mice, −MMS350 20.8 ± 3.9, p < 0.0001",3.6 ± 1.1%
same,1C3-1/11 conversion (autophagy),[2]; 5 Gy,no difference
same,H2AX phosphorylation (DNA strand break repair),[2]; 5 Gy,more prominent with MMS-350 than JP4-038
same,mitochondrial markers of apoptosis,[2]; one-hour before or 30-minutes after 5 Gy,reduced mitochondrial markers of apoptosis
same,number of cells and viability,32D cl 3 cells [3],comparable to JP4-039
same,diameter of tibia hole,"[4]; 0 Gy tibia vs control 0 Gy, 400 μM in water plus 20 mg/kg IP",significantly smaller
same,volume of tibia hole,[4]; 0 Gy+ MMS350 vs control 20 Gy irradiated tibia,significantly smaller
same,diameter of tibia hole,[4]; 20 Gy irradiated tibia vs control 20 Gy,significantly smaller
same,volume of tibia hole,[4]; 20 Gy+ MMS350 vs control 20 Gy irradiated tibia,significantly smaller
same,% Mortality after 24 h,Brine shrimp; 1 mg/mL,0%
same,% Mortality after 48 h,Brine shrimp; 1 mg/mL,0%
same,% Mortality after 24 h,Brine shrimp; 5 mg/mL,0%
same,% Mortality after 48 h,Brine shrimp; 5 mg/mL,0%
same,% Mortality after 24 h,Brine shrimp; 20 mg/mL,0-10%
same,% Mortality after 48 h,Brine shrimp; 20 mg/mL,0-10%
same,% Mortality after 24 h,Brine shrimp; 50 mg/mL,85%
same,% Mortality after 48 h,Brine shrimp; 50 mg/mL,100%
same,mortality after 48 hours,Brine shrimp; concentrations up to 20 mg/mL,< 10%
same,radiation protection and mitigation of colony forming cells,32D cl 3 cells [5],significant effectiveness

# Source: patent US10251860B2, “Compounds for bone healing” (University of Pittsburgh—Of the Commonwealth System of …, priority 2015, dated 2019)
